Assay results as given in US20250115571A1, “OXOPIPERAZINE DERIVATIVES” (Inthera Bioscience AG, priority 2017, published 2025).

Columns and labels:
Test in all cases: 5-day cell proliferation assay (CTG)
Type in all cases: cell-based
DU145 = settings: Homo sapiens, DU-145, 120 h, DU145, Prostate
Summary of the method: (§1)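 Using triplicate wells, compound-treated cultures are kept for 5 days at 37 °C and then quantified by CTG luminescence after 10 min in the dark at room temperature. A day 0 plate records starting density; GI50 comes from a sigmoidal curve fit.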

MOLM-13 = settings: Homo sapiens, 120 h, MOLM-13, Leukemia
Summary of the method: as §1

Granta-519 = settings: Homo sapiens, 120 h, Granta-519, Lymphoma
Summary of the method: as §1

MOLT-4 = settings: Homo sapiens, 120 h, MOLT-4, Leukemia
Summary of the method: as §1

Ramos = settings: Homo sapiens, 120 h, Lymphoma
Summary of the method: as §1

CaSki = settings: Homo sapiens, Ca-Ski, 120 h, Cervix
Summary of the method: as §1

Caco-2 = settings: Homo sapiens, 120 h, Caco-2, Colorectal
Summary of the method: as §1

SK-BR-3 = settings: Homo sapiens, 120 h, SK-BR-3, Breast
Summary of the method: as §1

Hep G2 = settings: Homo sapiens, HepG2, 120 h, Hep G2, Liver
Summary of the method: as §1

OVCAR-4 = settings: Homo sapiens, 120 h, OVCAR-4, Ovary
Summary of the method: as §1

MKN-45 = settings: Homo sapiens, 120 h, MKN-45, Stomach/Gastric
Summary of the method: as §1

HCC4006 = settings: Homo sapiens, 120 h, HCC4006, Lung
Summary of the method: as §1

Caki 2 = settings: Homo sapiens, 120 h, Caki 2, Kidney
Summary of the method: as §1

VCAP = settings: Homo sapiens, 120 h, Prostate
Summary of the method: as §1

22RV1 = settings: Homo sapiens, 120 h, 22RV1, Prostate
Summary of the method: as §1

MIA PaCa-2 = settings: Homo sapiens, 120 h, MIA PaCa-2, Pancreas
Summary of the method: as §1

H460 = settings: Homo sapiens, NCI-H460, 120 h, H460, Lung
Summary of the method: as §1

HEP-3B = settings: Homo sapiens, Hep3B, 120 h, Liver
Summary of the method: as §1

A549 = settings: Homo sapiens, 120 h, A549, Lung
Summary of the method: as §1

KYSE-150 = settings: Homo sapiens, 120 h, KYSE-150, Oesophagus
Summary of the method: as §1

HUH-7 = settings: Homo sapiens, 120 h, HUH-7, Liver
Summary of the method: as §1

HT-3 = settings: Homo sapiens, 120 h, HT-3, Cervix
Summary of the method: as §1

A375 = settings: Homo sapiens, A-375, 120 h, A375, Skin
Summary of the method: as §1

Malme-3M = settings: Homo sapiens, 120 h, Skin, highest tested concentration 10 μM
Summary of the method: as §1

Jurkat = settings: Homo sapiens, 120 h, Leukemia
Summary of the method: as §1

DoTc2 4510 = settings: Homo sapiens, 120 h, DoTc2 4510, Cervix
Summary of the method: as §1

SK-MEL5 = settings: Homo sapiens, SK-MEL-5, 120 h, SK-MEL5, Skin
Summary of the method: as §1

SF268 = settings: Homo sapiens, SF-268, 120 h, SF268, Brain/Nerves
Summary of the method: as §1

MKN-1 = settings: Homo sapiens, 120 h, MKN-1, Stomach/Gastric
Summary of the method: as §1

CC(C)C[C@@H]1NCCN([C@@H](CC(C)C)C(=O)N2CCC3(C[C@@H]2C)OCC(CN2CCCC2)CO3)C1=O (stereo partly drawn) [Compound 258, (3S)-1-[(2S)-4-methyl-1-oxo-1-[(3s,6s,8S)-8-methyl-3-(pyrrolidin-1-ylmethyl)-1,5-dioxa-9-azaspiro[5.5]undec-an-9-yl]pentan-2-yl]-3-(2-methylpropyl)piper-azin-2-one (^≠), isomer Z]
GI50 (DU145): 7 nM
GI50 (MOLM-13): 4 nM
GI50 (Granta-519): 38 nM
GI50 (MOLT-4): 9 nM
GI50 (Ramos): 27 nM
GI50 (CaSki): 35 nM
GI50 (Caco-2): 10 nM
GI50 (SK-BR-3): 12 nM
GI50 (Hep G2): 6 nM
GI50 (OVCAR-4): 12 nM
GI50 (MKN-45): 4 nM
GI50 (HCC4006): 8 nM
GI50 (Caki 2): 14 nM
GI50 (VCAP): 128 nM
GI50 (22RV1): 9 nM
GI50 (MIA PaCa-2): 11 nM
GI50 (H460): 11 nM
GI50 (HEP-3B): 23 nM
GI50 (A549): 10 nM
GI50 (KYSE-150): 11 nM
GI50 (HUH-7): 10 nM
GI50 (HT-3): 330 nM
GI50 (A375): 6 nM
GI50 (Malme-3M): > 10000 nM
GI50 (Jurkat): 18 nM
GI50 (DoTc2 4510): 14 nM
GI50 (SK-MEL5): 51 nM
GI50 (SF268): 30 nM
GI50 (MKN-1): 2 nM
